Paper PMC6701825, “Antiproliferative and Antimigratory Effects of a Novel YAP–TEAD Interaction Inhibitor Identified Using in Silico Molecular Docking” (Journal of Medicinal Chemistry, 2019)

Experiments:
[1] = test system: TEAD-independent minimal TNT1 gene promoter; assay: Minimal TNT1 promoter-luciferase (minP-LUC) reporter in RaVSMCs; type: cell-based, rat; details: 6 h
Experimental: Figure 3 Compound 3 inhibits TEAD target gene expression, cell proliferation, and cell migration. HeLa cells (A) and RaVSMCs (B) were transfected with CCN1-LUC, CTGF-LUC or minimal promoter-LUC (minP-LUC) reporter plasmids and treated with indicated concentrations of compound 3 for 6 h. Cell lysates were assayed for fire-fly luciferase activity (n = 3). HeLa cells (C) and RaVSMCs (D) were treated with indicated concentrations of compound 3 for 18 h, followed by a 6 h labeling with 10 μM EdU (n = 4). HeLa cells (E) and RaVSMCs (F) were treated with the indicated concentrations of compound 3 and migration quantified using a real-time IncuCyte scratch wound assay (n = 4). * = p < 0.05, ** = p < 0.01, *** = p < 0.001.
TNT1-minP reporter containing the Troponin-T minimal promoter was generated by digesting 8xGTIIC-luciferase plasmid (Addgene #34615) with Kpn1 and BglII to remove the TEAD elements, followed by blunt end re-ligation. A 2.177 kb fragment of the human CCN1 promoter containing two proximal TEAD elements (Hg19;chr1:86044316–chr1:86046493) was described previously[39] and cloned into pGL4-luciferase (Promega). The proximal promoter regions of the CTGF (Hg19;chr6:132272455–132272687) promoter, containing a consensus TEAD-binding element, was amplified by PCR from human genomic DNA and cloned into the Kpn1 and Nhe1 sites of pGL4-luciferase. […]

TEAD1 = target: T1, TEAD1 (Homo sapiens, UniProt P28347); assay: GAL4-TEAD1 fusion / 5xGAL4-secNLUC reporter in HeLa cells; type: cell-based; details: 100 μM, 6 h
T1 construct: #18881 (FLAG-YAP); host or cells: HeLa
Excerpt: TEAD proteins (TEAD1–4) display a high degree of sequence conservation in residues that create the hydrophobic pocket that is essential for YAP binding.[51] YAP proteins also display a high degree of conservation in residues that interact with this pocket.[51] We therefore tested whether CPD3.1 was able to inhibit YAP-induced activity of TEAD1, TEAD2, TEAD3, and TEAD4. To quantify the effect of CPD3.1 on the activity of each individual TEAD paralog, while excluding interference from endogenously expressed TEAD1–4 proteins, we expressed each TEAD paralog (TEAD1–4) fused to the yeast GAL4 DNA-binding domain. Cells were transfected with the GAL4–TEAD expression vector together with a secreted nanoluciferase reporter gene vector under control of a promoter containing five GAL4 DNA-binding elements. This system allows us to study the effect of CPD3.1 on the activity of each individual TEAD protein in isolation, without interference from endogenously expressed transcription factors. In addition, the cells were co-transfected with a YAP expression vector to activate the GAL4–TEAD fusion-dependent transcription (see Supplement Figure 9). Basal activities of TEAD1, TEAD2, TEAD3, and TEAD4 were inhibited by CPD3.1 (Figure 7A–D). […]
Figure 7 Compound 3.1 inhibits TEAD1, TEAD2, TEAD3, and TEAD4 activities. […] Secreted nano-luciferase activity was quantified in the conditioned media. […]

T1 sequence (P28347 whole entry, the tested form may be a part): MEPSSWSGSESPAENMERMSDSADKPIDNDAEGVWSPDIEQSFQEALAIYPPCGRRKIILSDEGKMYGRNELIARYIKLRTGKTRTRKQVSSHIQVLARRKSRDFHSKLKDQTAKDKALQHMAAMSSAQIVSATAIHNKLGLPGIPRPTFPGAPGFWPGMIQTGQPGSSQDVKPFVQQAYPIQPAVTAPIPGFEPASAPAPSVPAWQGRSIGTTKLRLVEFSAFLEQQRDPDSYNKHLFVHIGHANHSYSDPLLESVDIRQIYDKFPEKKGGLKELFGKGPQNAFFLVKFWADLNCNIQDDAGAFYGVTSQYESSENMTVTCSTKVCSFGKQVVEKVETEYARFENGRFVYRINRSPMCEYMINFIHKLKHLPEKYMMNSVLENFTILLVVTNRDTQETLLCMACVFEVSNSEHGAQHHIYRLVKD

| SMILES | activity of TEAD-independent minimal TNT1 promoter (minP-LUC) [1] | basal activity of GAL4-TEAD1 (TEAD1) | YAP-stimulated activity of GAL4-TEAD1 (TEAD1; YAP overexpression) |
| --- | --- | --- | --- |
| Cc1ccc2c(c1)c1c3n2CCN(CC(O)CN2CCN(C(=O)c4ccco4)CC2)C3CCC1 (stereo not drawn) [CPD3] | not inhibited by any concentration | – | – |
| Cc1ccc2c(c1)c1c3n2CCNC3CCC1 (stereo not drawn) [CPD3.1] | – | inhibited | significantly inhibited |
